The source made the active and inactive calls. No cut-off for these calls is given here.
Legend:
[1] = Selectivity index, ratio of CC50 for human HepG2.2.15 cells to IC50 for HBV infected in human HepG2.2.15 cells assessed as inhibition of viral DNA replication; format: toxicity, cell-based; conditions: HepG2.2.15 cells, read-out: Ratio CC50/IC50
[2] = Selectivity index, ratio of CC50 for human HepG2.2.15 cells to IC50 for HBsAg secretion in human HepG2.2.15 cells; format: toxicity, cell-based; conditions: for selectivity ratio: HepG2.2.15 cells, read-out: Ratio CC50/IC50
[3] = Inhibition of HBsAg secretion in human HepG2.2.15 cells treated for 6 days with replacement of medium containing compound on every 2 days by […]; format: functional, cell-based; conditions: HepG2 2.2.15
Hepatitis B virus [4] = assay: Antiviral activity against HBV infected in human HepG2.2.15 cells assessed as inhibition of viral DNA replication at 4 uM pre-transfected cells with viral genome followed by compound treatment for 6 days with replacement of medium containing compound on every 2 days by RT-PCR analysis relative to control; format: functional; conditions: for inhibition at 4 µM: HepG2.2.15, 144 h, time 6 day; for inhibition: time 6.0 day
[5] = Cytotoxicity against human HepG2.2.15 cells incubated for 72 hrs by CCK8 assay; format: toxicity, cell-based, HepG2 2.2.15
Hepatitis B virus [6] = assay: Antiviral activity against HBV infected in human HepG2.2.15 cells assessed as inhibition of viral DNA replication pre-transfected cells with viral genome followed by compound treatment for 6 days with replacement of medium containing compound on every 2 days by RT-PCR analysis; format: functional, organism-based
Hepatitis B virus [7] = assay: Antiviral activity against HBV infected in human HepG2.2.15 cells assessed as inhibition of viral DNA replication at 100 uM pre-transfected cells with viral genome followed by compound treatment for 72 hrs by RT-PCR analysis relative to control; format: functional
[8] = Cytotoxicity against human HepG2.A64 cells incubated for 72 hrs by CCK8 assay; format: toxicity, cell-based
Hepatitis B virus [9] = assay: Antiviral activity against HBV infected in human HepG2.A64 cells assessed as inhibition of viral DNA replication pre-transfected cells with viral genome followed by compound treatment for 3 days by RT-PCR analysis; format: functional, organism-based; conditions: HepG2.A64, 72 h
Hepatitis B virus [10] = assay: Antiviral activity against HBV infected in LAM/ETV-resistant human HepG2.A64 cells assessed as inhibition of viral DNA replication at 100 uM pre-transfected cells with viral genome followed by compound treatment for 72 hrs by RT-PCR analysis relative to control; format: functional
Hepatitis B virus [11] = assay: Antiviral activity against HBV infected in LAM/ETV-resistant human HepG2.A64 cells assessed as inhibition of viral DNA replication at 4 uM pre-transfected cells with viral genome followed by compound treatment for 72 hrs by RT-PCR analysis relative to control; format: functional
[12] = Selectivity index, ratio of CC50 for human HepG2.A64 cells to IC50 for HBV infected in human HepG2.A64 cells assessed as inhibition of viral DNA replication; format: toxicity, cell-based; conditions: read-out: Ratio CC50/IC50
Hepatitis B virus [13] = assay: Antiviral activity against HBV infected in human HepG2.2.15 cells assessed as inhibition of viral DNA replication at 4 uM pre-transfected cells with viral genome followed by compound treatment for 72 hrs by RT-PCR analysis relative to control; format: functional
Hepatitis B virus [14] = assay: Antiviral activity against HBV infected in human HepG2.2.15 cells assessed as inhibition of viral DNA replication at 10 uM pre-transfected cells with viral genome followed by compound treatment for 72 hrs by RT-PCR analysis relative to control; format: functional
Hepatitis B virus [15] = assay: Antiviral activity against HBV infected in LAM/ETV-resistant human HepG2.A64 cells assessed as inhibition of viral DNA replication at 10 uM pre-transfected cells with viral genome followed by compound treatment for 72 hrs by RT-PCR analysis relative to control; format: functional

| SMILES | selectivity ratio [1] | IC50 [3] | inhibition at 4 µM (Hepatitis B virus [4]) | CC50 at 72 h [5] | IC50 (Hepatitis B virus [6]) | further results |
| --- | --- | --- | --- | --- | --- | --- |
| O=C(Cc1csc(COc2cccc(C(F)(F)F)c2)n1)N1CCc2ccccc21 | > 14.2 | 41.6 µM | 50.9% | > 50 µM | 3.51 µM | selectivity ratio [2]: > 1.2 |
| Nc1ccn([C@@H]2CS[C@H](CO)O2)c(=O)n1 [LAMIVUDINE] | > 1000 | > 100 µM | 90.8% | > 100 µM | < 0.1 µM | inhibition at 100 µM (Hepatitis B virus [7]): 92.3%; CC50 at 72 h [8]: > 100 µM; Ratio CC50/IC50 [2]: Not Active; IC50 (Hepatitis B virus [9]): > 100 µM; inhibition at 100 µM (Hepatitis B virus [10]): 17.8% |
| Cc1cccc(OCc2nc(CC(=O)N3CCc4ccccc43)cs2)c1 | > 67.6 | 20.4 µM | 65.4% | > 50 µM | 0.74 µM | selectivity ratio [2]: > 2.45 |
| O=C(Cc1csc(COc2ccccc2)n1)N1CCc2cc(F)ccc21 | – | – | 18.7% | – | – | – |
| COc1cccc2c1CCN2C(=O)Cc1csc(COc2ccccc2)n1 | – | – | 4.26% | – | – | – |
| O=C(Cc1csc(COc2ccccc2)n1)N1CCc2cc(Br)ccc21 | > 132 | > 50 µM | 94% | > 50 µM | 0.38 µM | Ratio CC50/IC50 [2]: Not Active |
| O=C(Cc1csc(COc2cccc(Br)c2)n1)N1CCc2ccccc21 | > 59.5 | 42.7 µM | 73.4% | > 50 µM | 0.84 µM | selectivity ratio [2]: > 1.17 |
| O=C(Cc1csc(COc2ccccc2)n1)N1CCc2c(F)cccc21 | > 12.8 | 30.5 µM | 52.2% | > 50 µM | 3.9 µM | selectivity ratio [2]: > 1.64 |
| COc1ccc2c(c1)CCN2C(=O)Cc1csc(COc2ccccc2)n1 | > 17.6 | 39.1 µM | 57.7% | > 50 µM | 2.84 µM | selectivity ratio [2]: > 1.28 |
| O=C(Cc1csc(COc2ccccc2Br)n1)N1CCc2ccccc21 | – | – | – | – | – | inhibition (Hepatitis B virus [4]): inactive |
| O=C(Cc1csc(COc2ccc(Br)cc2)n1)N1CCc2ccccc21 | – | – | 25.7% | – | – | – |
| O=C(Cc1csc(COc2ccccc2C(F)(F)F)n1)N1CCc2ccccc21 | > 75.8 | > 50 µM | 74.5% | > 50 µM | 0.66 µM | Ratio CC50/IC50 [2]: Not Active |
| COc1ccccc1OCc1nc(CC(=O)N2CCc3ccccc32)cs1 | – | – | 45.5% | – | – | – |
| O=C(Cc1csc(COc2ccccc2)n1)N1CCc2c(Cl)cccc21 | – | – | 33.9% | – | – | – |
| O=C(Cc1csc(COc2ccccc2)n1)N1CCc2ccc(Br)cc21 | – | – | 14.1% | – | – | – |
| Cc1ccc2c(c1)CCN2C(=O)Cc1csc(COc2ccccc2)n1 | – | – | 40.5% | – | – | – |
| O=C(Cc1csc(COc2ccccc2)n1)N1CCc2ccccc21 | > 2.91 | > 50 µM | 45.4% | > 50 µM | 17.2 µM | Ratio CC50/IC50 [2]: Not Active |
| O=C(Cc1csc(COc2ccccc2)n1)N1CCc2c(Br)cccc21 | – | – | – | – | – | inhibition (Hepatitis B virus [4]): inactive |
| Cc1ccc(OCc2nc(CC(=O)N3CCc4ccccc43)cs2)cc1 | – | – | 39.4% | – | – | – |
| O=C(Cc1csc(COc2ccccc2)n1)N1CCc2cccc(Br)c21 | > 16.3 | > 50 µM | 51.6% | > 50 µM | 3.07 µM | Ratio CC50/IC50 [2]: Not Active |

| SMILES | selectivity ratio [1] | IC50 [3] | inhibition at 4 µM (Hepatitis B virus [4]) | CC50 at 72 h [5] | IC50 (Hepatitis B virus [6]) | further results |
| --- | --- | --- | --- | --- | --- | --- |
| Cc1ccccc1OCc1nc(CC(=O)N2CCc3ccccc32)cs1 | – | – | 22.6% | – | – | – |
| O=C(Cc1csc(COc2ccc(C(F)(F)F)cc2)n1)N1CCc2ccccc21 | > 76.9 | 39.5 µM | 70.2% | > 50 µM | 0.65 µM | selectivity ratio [2]: > 1.27 |
| O=C(Cc1csc(COc2ccc(F)cc2)n1)N1CCc2ccccc21 | – | – | 19.1% | – | – | – |
| O=C(Cc1csc(COc2ccccc2)n1)N1CCc2cc(Cl)ccc21 | > 217 | 26.1 µM | 80% | > 50 µM | 0.23 µM | inhibition at 4 µM (Hepatitis B virus [11]): 73.7%; CC50 at 72 h [8]: > 20 µM; selectivity ratio [2]: > 1.92; IC50 (Hepatitis B virus [9]): 0.57 µM; selectivity ratio [12]: > 35.1; inhibition at 4 µM (Hepatitis B virus [13]): 74.5% |
| COc1ccc(OCc2nc(CC(=O)N3CCc4ccccc43)cs2)cc1 | – | – | 34.5% | – | – | – |
| O=C(Cc1csc(COc2ccccc2)n1)N1CCc2ccc(Cl)cc21 | > 80.7 | 42.2 µM | 59.6% | > 50 µM | 0.62 µM | selectivity ratio [2]: > 1.19 |
| COc1cccc(OCc2nc(CC(=O)N3CCc4ccccc43)cs2)c1 | – | – | 8.33% | – | – | – |
| Cc1cccc2c1N(C(=O)Cc1csc(COc3ccccc3)n1)CC2 | – | – | 13.9% | – | – | – |
| Cc1ccc2c(c1)N(C(=O)Cc1csc(COc3ccccc3)n1)CC2 | – | – | – | – | – | inhibition (Hepatitis B virus [4]): inactive |
| O=C(Cc1csc(COc2ccccc2)n1)N1CCc2cccc(F)c21 | – | – | 34.6% | – | – | – |
| O=C(Cc1csc(COc2ccccc2)n1)N1CCc2cccc(Cl)c21 | > 49.5 | > 50 µM | 65.9% | > 50 µM | 1.01 µM | Ratio CC50/IC50 [2]: Not Active |
| C=C1[C@H](CO)[C@@H](O)C[C@@H]1n1cnc2c(=O)[nH]c(N)nc21 [ENTECAVIR ANHYDROUS] | – | – | – | – | – | inhibition at 10 µM (Hepatitis B virus [14]): 98.1%; inhibition at 10 µM (Hepatitis B virus [15]): 20.1% |
| O=C(Cc1csc(COc2ccccc2Cl)n1)N1CCc2ccccc21 | – | – | 15.7% | – | – | – |
| O=C(Cc1csc(COc2ccccc2F)n1)N1CCc2cc(Br)ccc21 | > 116 | 44.7 µM | 72.6% | > 50 µM | 0.43 µM | selectivity ratio [2]: > 0.89 |
| O=C(Cc1csc(COc2ccccc2)n1)N1CCc2ccc(F)cc21 | – | – | 34.2% | – | – | – |
| O=C(Cc1csc(COc2cccc(Cl)c2)n1)N1CCc2ccccc21 | – | – | – | – | – | inhibition (Hepatitis B virus [4]): inactive |
| O=C(Cc1csc(COc2cccc(F)c2)n1)N1CCc2ccccc21 | – | – | – | – | – | inhibition (Hepatitis B virus [4]): inactive |
| COc1ccc2c(c1)N(C(=O)Cc1csc(COc3ccccc3)n1)CC2 | – | – | 18.6% | – | – | – |
| COc1cccc2c1N(C(=O)Cc1csc(COc3ccccc3)n1)CC2 | – | – | 41.3% | – | – | – |

Reference: ChEMBL document CHEMBL5579825, “Exploration of 1-(indolin-1-yl)-2-(thiazol-2-yl)ethan-1-one derivatives as novel anti-HBV agent with potential TLR7-agonistic effect” (Eur J Med Chem, 2024)
